Patent US7138361B2, “Herbicidal heterocycles” (E. I. du Pont de Nemours and Company, priority 2000, dated 2006)

Columns and labels:
Assay type in all cases: in vivo
Sunflower = test: Test C preemergence; details: Rate 250 g/ha, scale 0 to 100, 0 no effect, 100 complete control
[1] = tested on: Surinam grass (Brachiaria decumbens); test: Test B preemergence
Procedure, shortened: (§1)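 Visual injury scores, 0 = no effect to 100 = complete control, assigned against controls after 13 to 15 days in the greenhouse. Compounds formulated in non-phytotoxic solvent plus surfactant and applied to soil after planting (pre) or onto foliage of 1- to 4-leaf plants (post).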

[2] = tested on: morning glory (Ipomoea hederacea); test: Test B preemergence
Procedure, shortened: as §1

[3] = tested on: giant foxtail (Setaria faberii); test: Test B preemergence
Procedure, shortened: as §1

[4] = tested on: cocklebur (Xanthium strumarium); test: Test B preemergence
Procedure, shortened: as §1

[5] = tested on: barnyardgrass (Echinochloa crus-galli); test: Test B preemergence
Procedure, shortened: as §1

[6] = tested on: pigweed (Amaranthus retroflexus); test: Test B preemergence
Procedure, shortened: as §1

rice (Oryza saliva) = test: Test B preemergence
Procedure, shortened: as §1

corn (Zea mays) = test: Test B preemergence
Procedure, shortened: as §1

[7] = tested on: lambsquarters (Chenopodium album); test: Test B preemergence
Procedure, shortened: as §1

[8] = tested on: crabgrass (Digitaria sanguinalis); test: Test B preemergence
Procedure, shortened: as §1

[9] = tested on: velvetleaf (Abutilon theophrasti); test: Test B preemergence
Procedure, shortened: as §1

kochia (Kochia scoparia) = test: Test C preemergence; details: for Plant response rating (0 to 100), Kochia: Rate 500 g/ha, visual evaluation after 12 to 14 days
Procedure, shortened: (§2)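 Preemergence: seeds sown then treated. Postemergence: plants 2–18 cm, 1- to 4-leaf. Both with surfactant-containing solvent formulation; visual injury scored 0–100 after 12–14 d.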

[10] = tested on: Surinam grass (Brachiaria decumbens); test: Test C preemergence; details: for Plant response rating (0 to 100), Surinam grass: Rate 500 g/ha, visual evaluation after 12 to 14 days
Procedure, shortened: as §2

soybean (Glycine max) = test: Test C preemergence; details: for Plant response rating (0 to 100), Soybean: Rate 500 g/ha, visual evaluation after 12 to 14 days
Procedure, shortened: as §2

[11] = tested on: giant foxtail (Setaria faberii); test: Test C preemergence; details: for Plant response rating (0 to 100), Foxtail, Giant: Rate 500 g/ha, visual evaluation after 12 to 14 days
Procedure, shortened: as §2

[12] = tested on: woolly cupgrass (Eriochloa villosa); test: Test C preemergence; details: for Plant response rating (0 to 100), Cupgrass, Woolly: Rate 500 g/ha, visual evaluation after 12 to 14 days
Procedure, shortened: as §2

[13] = tested on: cocklebur (Xanthium strumarium); test: Test C preemergence; details: for Plant response rating (0 to 100), Cocklebur: Rate 500 g/ha, visual evaluation after 12 to 14 days
Procedure, shortened: as §2

[14] = tested on: pigweed (Amaranthus retroflexus); test: Test C preemergence; details: for Plant response rating (0 to 100), Pigweed: Rate 500 g/ha, visual evaluation after 12 to 14 days
Procedure, shortened: as §2

[15] = tested on: bermudagrass (Cynodon dactylon); test: Test C preemergence; details: for Plant response rating (0 to 100 where 0 is no effect and 100 is complete control), Bermudagrass: Rate 500 g/ha, visual evaluation after 12 to 14 days
Procedure, shortened: as §2

[16] = tested on: crabgrass (Digitaria sanguinalis); test: Test C preemergence; details: for Plant response rating (0 to 100), Crabgrass: Rate 500 g/ha, visual evaluation after 12 to 14 days
Procedure, shortened: as §2

Nightshade = test: Test C preemergence; details: Rate 500 g/ha, visual evaluation after 12 to 14 days
[17] = Preemergence, Rate 500 g/ha, scale 0 to 100, 0 no effect, 100 complete control
[18] = preemergence, Rate 125 g/ha, scale of 0 to 100 where 0 is no effect and 100 is complete control, 13 to 15 days
[19] = Rate 125 g/ha, scale 0 to 100, 0 no effect, 100 complete control
[20] = preemergence, Rate 62 g/ha, scale 0 to 100
[21] = preemergence, Rate 250 g/ha, scale 0 to 100, 0 no effect, 100 complete control

COc1cc(N2CCC(n3ccc(C(C)C)n3)C2=O)ccc1Cl (stereo not drawn) [Compound 120]
Plant response rating, Sunflower (Sunflower): 100 | Plant response rating, Surinam grass [1, 17]: 100 | Plant response rating, Surinam grass [1, 18]: 40 | Plant response rating, Morningglory [2, 17]: 100 | Plant response rating, Morningglory [2, 18]: 70 | Plant response rating, Foxtail, Giant [3, 17]: 100 | Plant response rating, Foxtail, Giant [3, 18]: 100 | Plant response rating, Cocklebur [4, 17]: 40 | Plant response rating, Cocklebur [4, 18]: 20 | Plant response rating, Barnyardgrass [5, 17]: 100 | Plant response rating, Barnyardgrass [5, 18]: 100 | Plant response rating, Pigweed [6, 17]: 100 | Plant response rating, Pigweed [6, 18]: 100 | Plant response rating, Rice (rice (Oryza saliva); [17]): 30 | Plant response rating, Rice (rice (Oryza saliva); [18]): 20 | Plant response rating, Corn (corn (Zea mays); [17]): 50 | Plant response rating, Corn (corn (Zea mays); [18]): 20 | Plant response rating, Lambsquarters [7, 17]: 100 | Plant response rating, Lambsquarters [7, 18]: 100 | Plant response rating, Crabgrass [8, 17]: 100 | Plant response rating, Crabgrass [8, 18]: 100 | Plant response rating, Velvetleaf [9, 17]: 40 | Plant response rating, Velvetleaf [9, 18]: 20 | Plant response rating, Kochia (kochia (Kochia scoparia); [19]): 100 | Plant response rating, Kochia (kochia (Kochia scoparia); [20]): 100 | Plant response rating (0 to 100), Kochia (kochia (Kochia scoparia); preemergence): 100 | Plant response rating, Kochia (kochia (Kochia scoparia); [21]): 100 | Plant response rating, Surinam grass [10, 19]: 100 | Plant response rating, Surinam grass [10, 20]: 90 | Plant response rating (0 to 100), Surinam grass ([10]; preemergence): 100 | Plant response rating, Surinam grass [10, 21]: 100 | Plant response rating, Soybean (soybean (Glycine max); [19]): 70 | Plant response rating, Soybean (soybean (Glycine max); [20]): 60 | Plant response rating (0 to 100), Soybean (soybean (Glycine max); preemergence): 100 | Plant response rating, Soybean (soybean (Glycine max); [21]): 80 | Plant response rating, Foxtail, Giant [11, 19]: 50 | Plant response rating, Foxtail, Giant [11, 20]: 50 | Plant response rating (0 to 100), Foxtail, Giant ([11]; preemergence): 100 | Plant response rating, Foxtail, Giant [11, 21]: 60 | Plant response rating, Cupgrass, Woolly [12, 19]: 100 | Plant response rating, Cupgrass, Woolly [12, 20]: 100 | Plant response rating (0 to 100), Cupgrass, Woolly ([12]; preemergence): 100 | Plant response rating, Cupgrass, Woolly [12, 21]: 100 | Plant response rating, Cocklebur [13, 19]: 0 | Plant response rating, Cocklebur [13, 20]: 0 | Plant response rating (0 to 100), Cocklebur ([13]; preemergence): 30 | Plant response rating, Cocklebur [13, 21]: 30 | Plant response rating, Pigweed [14, 19]: 100 | Plant response rating, Pigweed [14, 20]: 100 | Plant response rating (0 to 100), Pigweed ([14]; preemergence): 70 | Plant response rating, Pigweed [14, 21]: 50 | Plant response rating, Bermudagrass [15, 19]: 100 | Plant response rating, Bermudagrass [15, 20]: 100 | Plant response rating (0 to 100 where 0 is no effect and 100 is complete control), Bermudagrass ([15]; preemergence): 100 | Plant response rating, Bermudagrass [15, 21]: 100 | Plant response rating, Crabgrass [16, 19]: 100 | Plant response rating, Crabgrass [16, 20]: 100 | Plant response rating (0 to 100), Crabgrass ([16]; preemergence): 100 | Plant response rating, Crabgrass [16, 21]: 100 | Plant response rating (0 to 100), Nightshade (Nightshade): 100

CCCC(C)c1ccn(C2CCN(c3ccc(Cl)c(OC)c3)C2=O)n1 (stereo not drawn) [Compound 121]
Plant response rating, Sunflower (Sunflower): 50 | Plant response rating, Surinam grass [1, 17]: 40 | Plant response rating, Surinam grass [1, 18]: 0 | Plant response rating, Morningglory [2, 17]: 30 | Plant response rating, Morningglory [2, 18]: 20 | Plant response rating, Foxtail, Giant [3, 17]: 100 | Plant response rating, Foxtail, Giant [3, 18]: 0 | Plant response rating, Cocklebur [4, 17]: 30 | Plant response rating, Cocklebur [4, 18]: 10 | Plant response rating, Barnyardgrass [5, 17]: 100 | Plant response rating, Barnyardgrass [5, 18]: 40 | Plant response rating, Pigweed [6, 17]: 100 | Plant response rating, Pigweed [6, 18]: 100 | Plant response rating, Rice (rice (Oryza saliva); [17]): 0 | Plant response rating, Rice (rice (Oryza saliva); [18]): 0 | Plant response rating, Corn (corn (Zea mays); [17]): 50 | Plant response rating, Corn (corn (Zea mays); [18]): 20 | Plant response rating, Lambsquarters [7, 17]: 100 | Plant response rating, Lambsquarters [7, 18]: 100 | Plant response rating, Crabgrass [8, 17]: 100 | Plant response rating, Crabgrass [8, 18]: 10 | Plant response rating, Velvetleaf [9, 17]: 20 | Plant response rating, Velvetleaf [9, 18]: 10 | Plant response rating, Kochia (kochia (Kochia scoparia); [19]): 100 | Plant response rating, Kochia (kochia (Kochia scoparia); [20]): 100 | Plant response rating (0 to 100), Kochia (kochia (Kochia scoparia); preemergence): 100 | Plant response rating, Kochia (kochia (Kochia scoparia); [21]): 100 | Plant response rating, Surinam grass [10, 19]: 80 | Plant response rating, Surinam grass [10, 20]: 20 | Plant response rating (0 to 100), Surinam grass ([10]; preemergence): 100 | Plant response rating, Surinam grass [10, 21]: 100 | Plant response rating, Soybean (soybean (Glycine max); [19]): 60 | Plant response rating, Soybean (soybean (Glycine max); [20]): 0 | Plant response rating (0 to 100), Soybean (soybean (Glycine max); preemergence): 100 | Plant response rating, Soybean (soybean (Glycine max); [21]): 90 | Plant response rating, Foxtail, Giant [11, 19]: 100 | Plant response rating, Foxtail, Giant [11, 20]: 20 | Plant response rating (0 to 100), Foxtail, Giant ([11]; preemergence): 100 | Plant response rating, Foxtail, Giant [11, 21]: 60 | Plant response rating, Cupgrass, Woolly [12, 19]: 100 | Plant response rating, Cupgrass, Woolly [12, 20]: 80 | Plant response rating (0 to 100), Cupgrass, Woolly ([12]; preemergence): 100 | Plant response rating, Cupgrass, Woolly [12, 21]: 100 | Plant response rating, Cocklebur [13, 19]: 20 | Plant response rating, Cocklebur [13, 20]: 0 | Plant response rating (0 to 100), Cocklebur ([13]; preemergence): 100 | Plant response rating, Cocklebur [13, 21]: 50 | Plant response rating, Pigweed [14, 19]: 50 | Plant response rating, Pigweed [14, 20]: 20 | Plant response rating (0 to 100), Pigweed ([14]; preemergence): 100 | Plant response rating, Pigweed [14, 21]: 60 | Plant response rating, Bermudagrass [15, 19]: 100 | Plant response rating, Bermudagrass [15, 20]: 100 | Plant response rating (0 to 100 where 0 is no effect and 100 is complete control), Bermudagrass ([15]; preemergence): 100 | Plant response rating, Bermudagrass [15, 21]: 100 | Plant response rating, Crabgrass [16, 19]: 100 | Plant response rating, Crabgrass [16, 20]: 100 | Plant response rating (0 to 100), Crabgrass ([16]; preemergence): 100 | Plant response rating, Crabgrass [16, 21]: 100 | Plant response rating (0 to 100), Nightshade (Nightshade): 100
